Assay results as given in BindingDB's records for doi:10.7270/Q2GM865X (D3R/Abbott, 2015).
Values joined by “and” are separate entries in the source; they are usually repeats but may differ in a detail not shown here. Equal values may be shown once.

molecular target: Coagulation factor X (Homo sapiens, UniProt P00742); assay: D3R245
Sequence (P00742 41-179 limits assumed): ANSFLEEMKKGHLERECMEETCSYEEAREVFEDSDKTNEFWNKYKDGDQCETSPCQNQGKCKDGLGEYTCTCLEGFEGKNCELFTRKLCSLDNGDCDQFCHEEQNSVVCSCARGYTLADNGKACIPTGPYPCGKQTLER
Sequence (P00742 235-488 limits assumed): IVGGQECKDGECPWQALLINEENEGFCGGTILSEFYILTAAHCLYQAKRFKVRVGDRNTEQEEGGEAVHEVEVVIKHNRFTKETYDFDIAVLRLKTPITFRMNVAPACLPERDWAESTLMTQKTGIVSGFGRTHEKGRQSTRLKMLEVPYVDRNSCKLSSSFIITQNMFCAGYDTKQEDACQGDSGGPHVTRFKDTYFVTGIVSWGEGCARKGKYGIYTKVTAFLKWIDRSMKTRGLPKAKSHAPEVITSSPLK

IC50 | SMILES
24 nM | C[C@@H](C(=O)N1CCOCC1)N1CC[C@H](N(CCN(C)C)S(=O)(=O)c2ccc3cc(Cl)ccc3c2)C1=O [GTC000042A]
56.5 nM | CC(=O)NCCN([C@H]1CCN([C@@H](C)C(=O)N2CCOCC2)C1=O)S(=O)(=O)c1ccc2cc(Cl)ccc2c1 [GTC000041A]
12 nM | C[C@@H](C(=O)N1CCOCC1)N1CC[C@H](N(CCN2CCCC2)S(=O)(=O)c2ccc3cc(Cl)ccc3c2)C1=O [GTC000043A]
60 nM | CCC(=O)CN([C@H]1CCN([C@@H](C)C(=O)N2CCOCC2)C1=O)S(=O)(=O)/C=C/c1ccc(Cl)cc1 [GTC000012A]
405 nM | C[C@@H](C(=O)N1CCOCC1)N1CC[C@H](N(C)S(=O)(=O)/C=C/c2ccc(Cl)s2)C1=O [GTC000044A]
6.5 nM | C[C@@H](C(=O)N1CCOCC1)N1CC[C@H](N(CC(=O)OC(C)(C)C)S(=O)(=O)c2ccc3cc(Cl)ccc3c2)C1=O [GTC000022A]
68 nM | C[C@@H](C(=O)N1CCOCC1)N1CC[C@H](N(Cc2ccco2)S(=O)(=O)c2ccc3cc(Cl)ccc3c2)C1=O [GTC000019A]
266 nM | C[C@@H](C(=O)N1CCOCC1)N1CC[C@H](N(c2ccccc2)S(=O)(=O)c2ccc3cc(Cl)ccc3c2)C1=O [GTC000033A]
17.5 nM | Cc1nc(CN([C@H]2CCN([C@@H](C)C(=O)N3CCOCC3)C2=O)S(=O)(=O)c2ccc3cc(Cl)ccc3c2)cs1 [GTC000024A]
170 nM | C[C@@H](C(=O)N1CCOCC1)N1CC[C@H](N(c2ccc(F)cc2)S(=O)(=O)c2ccc3cc(Cl)ccc3c2)C1=O [GTC000034A]
17 nM | C[C@@H](C(=O)N1CCOCC1)N1CC[C@H](N(CC(=O)C(C)(C)C)S(=O)(=O)c2ccc3cc(Cl)ccc3c2)C1=O [GTC000021A]
40 nM | C[C@@H](C(=O)N1CCOCC1)N1CC[C@H](N(Cc2ccoc2)S(=O)(=O)c2ccc3cc(Cl)ccc3c2)C1=O [GTC000014A]
152 nM | C[C@@H](C(=O)N1CCOCC1)N1CC[C@H](N(c2ccsc2)S(=O)(=O)c2ccc3cc(Cl)ccc3c2)C1=O [GTC000036A]
26.3 nM | C[C@@H](C(=O)N1CCOCC1)N1CC[C@H](N(Cc2cccnc2)S(=O)(=O)c2ccc3cc(Cl)ccc3c2)C1=O [GTC000015A]
24 nM | C[C@@H](C(=O)N1CCOCC1)N1CC[C@H](N(CC(=O)O)S(=O)(=O)c2ccc(-c3ccc(Cl)s3)s2)C1=O [GTC000016A]
8.3 nM | C[C@@H](C(=O)N1CCOCC1)N1CC[C@H](N(CCN2CCOCC2)S(=O)(=O)c2ccc3cc(Cl)ccc3c2)C1=O [GTC000040A]
97.3 nM | C[C@@H](C(=O)N1C[C@@H]2C[C@H]1CO2)N1CC[C@H](N(CC(N)=O)S(=O)(=O)c2ccc3cc(Cl)ccc3c2)C1=O [GTC000039A]
54 nM | CCN([C@H]1CCN([C@@H](C)C(=O)N2CCOCC2)C1=O)S(=O)(=O)c1ccc2cc(Cl)ccc2c1 [GTC000023A]
11 nM | C[C@@H](C(=O)N1CCOCC1)N1CC[C@H](N(Cc2ccncc2)S(=O)(=O)c2ccc3cc(Cl)ccc3c2)C1=O [GTC000029A]
218 nM | C[C@@H](C(=O)N1CCOCC1)N1CC[C@H](N(CC(N)=O)S(=O)(=O)c2cc3cc(Cl)ccc3s2)C1=O [GTC000031A]

IC50 | SMILES
38 nM | C[C@@H](C(=O)N1CCOCC1)N1CC[C@H](N(Cc2nccs2)S(=O)(=O)c2ccc3cc(Cl)ccc3c2)C1=O [GTC000020A]
60 nM | COC(=O)CN([C@H]1CCN([C@@H](C)C(=O)N2CCOCC2)C1=O)S(=O)(=O)/C=C/c1ccc(Cl)cc1 [GTC000013A]
10.5 nM | COC(=O)CN([C@H]1CCN([C@@H](C)C(=O)N2CCOCC2)C1=O)S(=O)(=O)c1ccc2cc(Cl)ccc2c1 [GTC000001A]
77 nM | C[C@@H](C(=O)N1CCOCC1)N1CC[C@H](N(c2cccnc2)S(=O)(=O)c2ccc3cc(Cl)ccc3c2)C1=O [GTC000037A]
28 nM | C[C@@H](C(=O)N1CCOCC1)N1CC[C@H](N(CC#N)S(=O)(=O)c2ccc(-c3ccc(Cl)s3)s2)C1=O [GTC000008A]
67 nM | C=CCN([C@H]1CCN([C@@H](C)C(=O)N2CCOCC2)C1=O)S(=O)(=O)c1ccc2cc(Cl)ccc2c1 [GTC000004A]
15.5 nM | COC(=O)CN([C@H]1CCN([C@@H](C)C(=O)N2CCOCC2)C1=O)S(=O)(=O)c1ccc(-c2ccc(Cl)s2)s1 [GTC000009A]
17 nM | CCC(=O)CN([C@H]1CCN([C@@H](C)C(=O)N2CCOCC2)C1=O)S(=O)(=O)c1ccc(-c2ccc(Cl)s2)s1 [GTC000010A]
27 nM | CCC(=O)CN([C@H]1CCN([C@@H](C)C(=O)N2CCOCC2)C1=O)S(=O)(=O)c1cc2ccc(Cl)cc2s1 [GTC000025A]
26.5 nM | C[C@@H]1CN(C(=O)[C@H](C)N2CC[C@H](N(CC(N)=O)S(=O)(=O)c3ccc4cc(Cl)ccc4c3)C2=O)C[C@H](C)O1 [GTC000038A]
54 nM | C[C@@H](C(=O)N1CCOCC1)N1CC[C@H](N(CC(N)=O)S(=O)(=O)/C=C/c2ccc(Cl)cc2)C1=O [GTC000030A]
14 nM | C[C@@H](C(=O)N1CCOCC1)N1CC[C@H](N(CC(N)=O)S(=O)(=O)c2ccc(-c3ccc(Cl)s3)s2)C1=O [GTC000032A]
8 nM and 12 nM | C[C@@H](C(=O)N1CCOCC1)N1CC[C@H](N(Cc2ccccn2)S(=O)(=O)c2ccc3cc(Cl)ccc3c2)C1=O [GTC000028A]
278 nM | CCC(=O)CN([C@H]1CCN([C@@H](C)C(=O)N2CCOCC2)C1=O)S(=O)(=O)c1cc2cc(Cl)ccc2s1 [GTC000027A]
22.5 nM | C[C@@H](C(=O)N1CCOCC1)N1CC[C@H](N(CC#N)S(=O)(=O)c2ccc3cc(Cl)ccc3c2)C1=O [GTC000003A]
132 nM | C[C@@H](C(=O)N1CCOCC1)N1CC[C@H](N(CC(=O)O)S(=O)(=O)/C=C/c2ccc(Cl)cc2)C1=O [GTC000017A]
50 nM | C[C@@H](C(=O)N1CCOCC1)N1CC[C@H](N(CC(N)=O)S(=O)(=O)c2cc3ccc(Cl)cc3s2)C1=O [GTC000026A]
87.5 nM | C[C@@H](C(=O)N1CCOCC1)N1CC[C@H](N(CC#N)S(=O)(=O)/C=C/c2ccc(Cl)cc2)C1=O [GTC000011A]
358 nM | CCOC(=O)CN([C@H]1CCN([C@@H](C)C(=O)N2CCOCC2)C1=O)S(=O)(=O)c1ccc2cc(Cl)ccc2c1 [GTC000018A]
